In US10597388B2, “Pyridazinone herbicides” (FMC CORPORATION, priority 2014, dated 2020):

What was measured:
Experiment in all cases: Test D controlled growth environment herbicide test, pre- and postemergence
Assay type in all cases: in vivo
[1] = test system: bromegrass, downy (downy bromegrass, Bromus tectorum)
Outline: (§1)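 Species sown in silt loam and sprayed preemergence, or grown in peat-based medium to 2–18 cm (1- to 4-leaf stage) and sprayed postemergence, with compounds in non-phytotoxic solvent plus surfactant. Visual injury scored versus controls after 14–21 d in a controlled environment, 0 (no effect) to 100 (complete control).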

[2] = test system: buckwheat, wild (wild buckwheat, Polygonum convolvulus)
Outline: as §1

[3] = test system: canarygrass (Phalaris minor)
Outline: as §1

[4] = test system: chamomile (scentless chamomile, Matricaria inodora)
Outline: as §1

[5] = test system: chickweed (common chickweed, Stellaria media)
Outline: as §1

[6] = test system: deadnettle (henbit deadnettle, Lamium amplexicaule)
Outline: as §1

[7] = test system: field violet (Viola arvensis)
Outline: as §1

[8] = test system: foxtail, green (green foxtail, Setaria viridis)
Outline: as §1

[9] = test system: galium (catchweed bedstraw, Galium aparine)
Outline: as §1

[10] = test system: lambsquarters (Chenopodium album)
Outline: as §1

[11] = test system: oilseed rape (Brassica napus)
Outline: as §1

[12] = test system: ryegrass, Italian (Italian ryegrass, Lolium multiflorum)
Outline: as §1

[13] = test system: wheat, winter (winter wheat, Triticum aestivum)
Outline: as §1

[14] = test system: windgrass (Apera spica-venti)
Outline: as §1

[15] = Postemergence, 31 g ai/ha, scale 0 to 100 (0 no effect, 100 complete control)
[16] = Postemergence, 125 g ai/ha, visual rating on scale 0 (no effect) to 100 (complete control), 14 to 21 d
[17] = Postemergence, 250 g ai/ha, scale 0 to 100 (0 no effect, 100 complete control)
[18] = Preemergence, 62 g ai/ha, scale 0 to 100 (0 no effect, 100 complete control)
[19] = Preemergence, 125 g ai/ha, scale 0 to 100 (0 no effect, 100 complete control)
[20] = Preemergence, 250 g ai/ha, scale 0 to 100, 0 no effect, 100 complete control
[21] = postemergence, 62 g ai/ha, scale 0 to 100, 0 no effect, 100 complete control

With `CCc1sc2c(C)cc(C)cc2c1-c1c(O)c(C)nn(C)c1=O` [Compound 57] the “Bromegrass, Downy plant response rating” value [1, 15] was 15, the “Plant response rating, Bromegrass, Downy” value [1, 16] was 25 and the “Plant response rating, Bromegrass, Downy” value [1, 17] was 35. The “Plant response rating (scale of 0 to 100), Bromegrass, Downy” value ([1]; Preemergence, 31 g ai/ha) was 0, the “Plant response rating, Bromegrass, Downy” value [1, 18] was 5 and the “Plant response rating, Bromegrass, Downy” value [1, 19] was 25. The “Plant response rating, Bromegrass, Downy” value [1, 20] was 30, the “Plant response rating, Bromegrass, Downy” value [1, 21] was 20 and the “Buckwheat, Wild plant response rating” value [2, 15] was 80. The “Plant response rating, Buckwheat, Wild” value [2, 16] was 85, the “Plant response rating, Buckwheat, Wild” value [2, 17] was 100 and the “Plant response rating (scale of 0 to 100), Buckwheat, Wild” value ([2]; Preemergence, 31 g ai/ha) was 0. The “Plant response rating, Buckwheat, Wild” value [2, 18] was 10, the “Plant response rating, Buckwheat, Wild” value [2, 19] was 10 and the “Plant response rating, Buckwheat, Wild” value [2, 20] was 100. The “Plant response rating, Buckwheat, Wild” value [2, 21] was 85, the “Canarygrass plant response rating” value [3, 15] was 5 and the “Plant response rating, Canarygrass” value [3, 16] was 15. The “Plant response rating, Canarygrass” value [3, 17] was 25, the “Plant response rating (scale of 0 to 100), Canarygrass” value ([3]; Preemergence, 31 g ai/ha) was 0 and the “Plant response rating, Canarygrass” value [3, 18] was 10. For the same molecule, the “Plant response rating, Canarygrass” value [3, 19] was 55, the “Plant response rating, Canarygrass” value [3, 20] was 65 and the “Plant response rating, Canarygrass” value [3, 21] was 5. The “Chamomile plant response rating” value [4, 15] was 100, the “Plant response rating, Chamomile” value [4, 16] was 100 and the “Plant response rating, Chamomile” value [4, 17] was 100. For the same molecule, the “Plant response rating, Chamomile” value [4, 21] was 100, the “Chickweed plant response rating” value [5, 15] was 100 and the “Plant response rating, Chickweed” value [5, 16] was 100. For the same molecule, the “Plant response rating, Chickweed” value [5, 17] was 100, the “Plant response rating (scale of 0 to 100), Chickweed” value ([5]; Preemergence, 31 g ai/ha) was 100 and the “Plant response rating, Chickweed” value [5, 18] was 100. For the same molecule, the “Plant response rating, Chickweed” value [5, 19] was 100, the “Plant response rating, Chickweed” value [5, 20] was 100 and the “Plant response rating, Chickweed” value [5, 21] was 100. For the same molecule, the “Deadnettle plant response rating” value [6, 15] was 70, the “Plant response rating, Deadnettle” value [6, 16] was 85 and the “Plant response rating, Deadnettle” value [6, 17] was 100. For the same molecule, the “Plant response rating (scale of 0 to 100), Deadnettle” value ([6]; Preemergence, 31 g ai/ha) was 0, the “Plant response rating, Deadnettle” value [6, 18] was 20 and the “Plant response rating, Deadnettle” value [6, 19] was 25. For the same molecule, the “Plant response rating, Deadnettle” value [6, 20] was 45, the “Plant response rating, Deadnettle” value [6, 21] was 90 and the “Field Violet plant response rating” value [7, 15] was 80. The “Plant response rating, Field Violet” value [7, 16] was 75, the “Plant response rating, Field Violet” value [7, 17] was 85 and the “Plant response rating (scale of 0 to 100), Field Violet” value ([7]; Preemergence, 31 g ai/ha) was 95. For the same molecule, the “Plant response rating, Field Violet” value [7, 18] was 100, the “Plant response rating, Field Violet” value [7, 19] was 100 and the “Plant response rating, Field Violet” value [7, 20] was 100. The “Plant response rating, Field Violet” value [7, 21] was 70, the “Foxtail, Green plant response rating” value [8, 15] was 75 and the “Plant response rating, Foxtail, Green” value [8, 16] was 75. For the same molecule, the “Plant response rating, Foxtail, Green” value [8, 17] was 90, the “Plant response rating (scale of 0 to 100), Foxtail, Green” value ([8]; Preemergence, 31 g ai/ha) was 10 and the “Plant response rating, Foxtail, Green” value [8, 18] was 70. For the same molecule, the “Plant response rating, Foxtail, Green” value [8, 19] was 100, the “Plant response rating, Foxtail, Green” value [8, 20] was 100 and the “Plant response rating, Foxtail, Green” value [8, 21] was 75. For the same molecule, the “Galium plant response rating” value [9, 15] was 90, the “Plant response rating, Galium” value [9, 16] was 90 and the “Plant response rating, Galium” value [9, 17] was 98. For the same molecule, the “Plant response rating (scale of 0 to 100), Galium” value ([9]; Preemergence, 31 g ai/ha) was 85, the “Plant response rating, Galium” value [9, 18] was 100 and the “Plant response rating, Galium” value [9, 19] was 100. For the same molecule, the “Plant response rating, Galium” value [9, 20] was 100, the “Plant response rating, Galium” value [9, 21] was 90 and the “Lambsquarters plant response rating” value [10, 15] was 75. The “Plant response rating, Lambsquarters” value [10, 16] was 75, the “Plant response rating, Lambsquarters” value [10, 17] was 85 and the “Plant response rating (scale of 0 to 100), Lambsquarters” value ([10]; Preemergence, 31 g ai/ha) was 100. The “Plant response rating, Lambsquarters” value [10, 18] was 100, the “Plant response rating, Lambsquarters” value [10, 19] was 100 and the “Plant response rating, Lambsquarters” value [10, 20] was 100. The “Plant response rating, Lambsquarters” value [10, 21] was 75, the “Oilseed Rape plant response rating” value [11, 15] was 20 and the “Plant response rating, Oilseed Rape” value [11, 16] was 65. For the same molecule, the “Plant response rating, Oilseed Rape” value [11, 17] was 65, the “Plant response rating (scale of 0 to 100), Oilseed Rape” value ([11]; Preemergence, 31 g ai/ha) was 0 and the “Plant response rating, Oilseed Rape” value [11, 18] was 0. The “Plant response rating, Oilseed Rape” value [11, 19] was 0, the “Plant response rating, Oilseed Rape” value [11, 20] was 25 and the “Plant response rating, Oilseed Rape” value [11, 21] was 25. For the same molecule, the “Ryegrass, Italian plant response rating” value [12, 15] was 25, the “Plant response rating, Ryegrass, Italian” value [12, 16] was 75 and the “Plant response rating, Ryegrass, Italian” value [12, 17] was 85. For the same molecule, the “Plant response rating (scale of 0 to 100), Ryegrass, Italian” value ([12]; Preemergence, 31 g ai/ha) was 55, the “Plant response rating, Ryegrass, Italian” value [12, 18] was 75 and the “Plant response rating, Ryegrass, Italian” value [12, 19] was 80. For the same molecule, the “Plant response rating, Ryegrass, Italian” value [12, 20] was 95, the “Plant response rating, Ryegrass, Italian” value [12, 21] was 50 and the “Wheat, Winter plant response rating” value [13, 15] was 5. For the same molecule, the “Plant response rating, Wheat, Winter” value [13, 16] was 10, the “Plant response rating, Wheat, Winter” value [13, 17] was 15 and the “Plant response rating (scale of 0 to 100), Wheat, Winter” value ([13]; Preemergence, 31 g ai/ha) was 5. For the same molecule, the “Plant response rating, Wheat, Winter” value [13, 18] was 5, the “Plant response rating, Wheat, Winter” value [13, 19] was 5 and the “Plant response rating, Wheat, Winter” value [13, 20] was 10. For the same molecule, the “Plant response rating, Wheat, Winter” value [13, 21] was 10, the “Windgrass plant response rating” value [14, 15] was 10 and the “Plant response rating, Windgrass” value [14, 16] was 10. The “Plant response rating, Windgrass” value [14, 17] was 15, the “Plant response rating (scale of 0 to 100), Windgrass” value ([14]; Preemergence, 31 g ai/ha) was 20 and the “Plant response rating, Windgrass” value [14, 18] was 35. For the same molecule, the “Plant response rating, Windgrass” value [14, 19] was 65, the “Plant response rating, Windgrass” value [14, 20] was 80 and the “Plant response rating, Windgrass” value [14, 21] was 10.
